Source: PMC5698726, “Allosteric Tuning of Caspase‐7: A Fragment‐Based Drug Discovery Approach” (Angewandte Chemie (International Ed. in English), 2017)

Columns and labels:
caspase-7 (C7) [1] = molecular target: T1, caspase-7 (C7) (Homo sapiens, UniProt P55210); test: SPR OneStep injection, His-captured protein, […] fit; type: binding; settings: read-out: Dissociation constant
T1 construct: gene CASP7; mature (processed, active) caspase-7, dimer, 6xHis tag; expression details only in supplement
T1 sequence (P55210 24-198): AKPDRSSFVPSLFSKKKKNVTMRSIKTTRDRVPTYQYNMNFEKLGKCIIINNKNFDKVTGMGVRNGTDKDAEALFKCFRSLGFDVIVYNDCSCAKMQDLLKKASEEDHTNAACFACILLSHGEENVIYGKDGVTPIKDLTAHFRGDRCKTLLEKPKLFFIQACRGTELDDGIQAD
T1 sequence (P55210 207-303): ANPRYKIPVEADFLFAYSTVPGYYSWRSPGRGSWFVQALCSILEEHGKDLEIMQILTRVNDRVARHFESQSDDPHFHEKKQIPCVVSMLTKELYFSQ

caspase-7 (C7) [2] = molecular target: T1, caspase-7 (C7); test: fluorogenic Ac-DEVD-AFC cleavage assay; type: biochemical
caspase-7 (C7) [3] = molecular target: T1, caspase-7 (C7); test: steady-state kinetics, Ac-DEVD-AFC cleavage; type: biochemical

Row | Kd (caspase-7 (C7) [1]) [mM] | IC50 (caspase-7 (C7) [2]) [mM] | Ki (caspase-7 (C7) [3]) [mM] | Structure (SMILES)
1 | 8 ± 3 | 3.98 ± 0.00105 | 5.47 ± 0.398 | CC(=O)c1ccccc1Sc1ccccc1C(=O)O [compound 1, 1]
2 | 4.09 ± 0.3 | 8.52 ± 0.0012 | 4.32 ± 0.194 | O=C(O)C1c2ccccc2Oc2ccccc21 [compound 2, 2]
3 | – | 0.637 ± 0.00104 | 0.667 ± 0.0319 | O=C(O)Cc1ccccc1Sc1ccccc1 [compound 6, 6]
